Test results reported in patent publication US6184209A, “Diabetes treatment” (Alizyme Therapeutics Limited, priority 1996, dated 2001).
Where a SMILES comes first, the peptide text is derived from it.

Key:
[1] = test system: Isolated soleus muscles--male mice; assay: 2-deoxy-D-[1-3H]glucose uptake into isolated soleus muscles, male mice; type: cell-based; conditions: 10^-9 M
Protocol: (§1) Isolated soleus, EDL (extensor digitorum longus) or diaphragm muscles of normal male and female mice were incubated for 30 min at 37° C. in oxygenated Krebs buffer containing 2-deoxy-D-[1-^3 H]glucose. 2-Deoxy-D-glucose is a derivative of D-glucose which is taken up into muscle by carrier-mediated transport and which accumulates in muscle as 2-deoxy-D-glucose-6-phosphate without further metabolism. The tritiated derivative can therefore be used to determine the uptake into muscle of D-glucose (which itself is metabolised). A COOH-terminal (C-terminal) fragment of β-endorphin and an analogue of a β-endorphin fragment were added to the Krebs buffer. These were the C-terminal dipeptide (glycyl-L-glutamine or glycyl-L-glutamic acid) and CH3 CO-Lys-D-Lys-Sar-Glu, a stable analogue of the C-terminal tetrapeptide of β-endorphin. Pyruvate (2 mM) and 2% bovine serum albumen were also present in the bathing medium surrounding the muscles. The extracellular space in the muscles was determined by including L-[1-^14 C] glucose, which is not transported into muscle via the D-glucose membrane carrier.
(§2) At the end of the incubation period, the tissue samples were digested in 1 M NaOH at 90° C. and the radioactivity counted by liquid scintillation counting.
a) Isolated soleus muscles--male mice

EDL muscles--female mice = assay: 2-deoxy-D-[1-3H]glucose uptake into EDL muscles, female mice; type: cell-based; conditions: 10^-7 M; for increase in the uptake of 2-deoxy-D-glucose into the muscles (%): normal female mice
Protocol: as §1, §2
d) EDL muscles--female mice
Following the procedure outlined in Example 1, it was shown that Gly-Gin in a concentration of 10^-7 M caused a 180% increase in 2-deoxy-D-glucoseuptake in EDL muscles of normal female mice, whilst with Gly-Glu there was an 80% increase.

[2] = test system: Diaphragm muscles--female mice; assay: 2-deoxy-D-[1-3H]glucose uptake into diaphragm muscles, female mice; type: cell-based; conditions: 10^-8 M
Protocol: as §1, §2
e) Diaphragm muscles--female mice

EDL muscles--male mice = assay: 2-deoxy-D-[1-3H]glucose uptake into EDL muscles, male mice; type: cell-based; conditions: 10^-9 M
Protocol: as §1, §2
c) EDL muscles--male mice

[3] = test system: Isolated soleus muscles--female mice; assay: 2-deoxy-D-[1-3H]glucose uptake into isolated soleus muscles, female mice; type: cell-based; conditions: 10^-8 M
Protocol: as §1, §2
b) Isolated soleus muscles--female mice

dopamine-depleted rats = conditions: rat, in vivo; cited from earlier work
urodele limb = conditions: in vivo; cited from earlier work
[4] = test system: subjects with non-insulin dependent diabetes mellitus (type II); conditions: type II diabetics, cited from earlier work
[5] = 2.5 mg by intravenous bolus injection

insulin
increase in the uptake of 2-deoxy-D-glucose into the muscles (%) [1]: 500% | increase in the uptake of 2-deoxy-D-glucose into the muscles (fold) [1]: 6 fold | increase in the uptake of 2-deoxy-D-glucose into the muscles (fold) (EDL muscles--female mice; female mice): 3.5 fold | increase in the uptake of 2-deoxy-D-glucose into the muscles (%) (EDL muscles--female mice): 250% | increase in the uptake of 2-deoxy-D-glucose into the muscles (fold) [2]: similar | increase in the uptake of 2-deoxy-D-glucose into the muscles (%) (EDL muscles--male mice): 150% | increase in the uptake of 2-deoxy-D-glucose into the muscles (fold) (EDL muscles--male mice): 2.5 fold | increase in the uptake of 2-deoxy-D-glucose into the muscles (%) [3]: ~100% | increase in the uptake of 2-deoxy-D-glucose into the muscles (fold) [3]: approximately 2 fold

NCC(=O)N[C@@H](CCC(=O)O)C(=O)O [Gly-Glu, glycyl-L-glutamic acid] (H-Gly-Glu-OH)
increase in the uptake of 2-deoxy-D-glucose into the muscles (%) (EDL muscles--female mice): 80%

NCC(=O)N[C@@H](CCC(N)=O)C(=O)O [Gly-Gin, glycyl-L-glutamine] (H-Gly-Gln-OH)
increase in the uptake of 2-deoxy-D-glucose into the muscles (%) (EDL muscles--female mice): 180%

Lys-Lys-Gly-Glu (KKGE; printed: Lys-Lys-Gly-Glu) [MPF]
turning response of dopamine-depleted rats to D-amphetamine (dopamine-depleted rats): significant reductions | urodele limb regeneration (urodele limb): promoting

β-endorphin (YGGFMTSEKSQTPLVTLFKNAIIKNAYKKGE; Beta-endorphin; UniProt P01189 237-267, looked up) [human β-endorphin]
duration of increments in plasma insulin and glucagon [4, 5]: up to 90 minutes | plasma concentrations of insulin and glucagon [4, 5]: prompt and simultaneous increments | progressive decline in plasma glucose: effect of administration ([4]; administration one hour after start of three hour study period): substantially unaffected
